According to US6737383B1, “Herbicidal oxadiazolidines” (priority 1999, dated 2004):

Experiments:
cocklebur = experiment: Test B pre/postemergence cocklebur; assay type: in vivo, Xanthium strumarium; conditions: Preemergence
Method in brief: (§1)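 Herbicidal effect was estimated by eye on a ten-point control scale after plants spent twelve to sixteen days in a greenhouse following soil or foliar treatment. Foliar sprays targeted plants at one to four leaves; all doses were formulated in a non-phytotoxic solvent with surfactant.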

blackgrass = experiment: Test B pre/postemergence blackgrass; assay type: in vivo, Alopecurus myosuroides; conditions: Preemergence
Method in brief: as §1

smallflower flatsedge = experiment: Test B flood test smallflower flatsedge; assay type: in vivo, Cyperus difformis
Method in brief: (§2)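 Each value is a visual injury score relative to controls, with 10 meaning complete control and 0 no effect. Evaluation took place twelve to sixteen days after the 2-leaf-stage plants were treated and kept in the greenhouse.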

bamyardgrass = experiment: Test B flood test barnyardgrass; assay type: in vivo, Echinochloa crus-galli
Method in brief: as §2

sugar beet = experiment: Test B pre/postemergence sugar beet; assay type: in vivo, Beta vulgaris; conditions: Preemergence
Method in brief: as §1

soybean = experiment: Test B pre/postemergence soybean; assay type: in vivo, Glycine max; conditions: Preemergence
Method in brief: as §1

surinam grass = experiment: Test B pre/postemergence surinam grass; assay type: in vivo, Brachiaria decumbens; conditions: Preemergence
Method in brief: as §1

purple nutsedge = experiment: Test B pre/postemergence purple nutsedge; assay type: in vivo, Cyperus rotundus; conditions: Preemergence
Method in brief: as §1

rape = experiment: Test B pre/postemergence rape; assay type: in vivo, Brassica napus; conditions: Preemergence
Method in brief: as §1

pigweed = experiment: Test B pre/postemergence pigweed; assay type: in vivo, Amaranthus retroflexus; conditions: Preemergence
Method in brief: as §1

bedstraw = experiment: Test B pre/postemergence bedstraw; assay type: in vivo, Galium aparine; conditions: Preemergence
Method in brief: as §1

wild oat = experiment: Test B pre/postemergence wild oat; assay type: in vivo, Avena fatua; conditions: Preemergence
Method in brief: as §1

velvetleaf = experiment: Test B pre/postemergence velvetleaf; assay type: in vivo, Abutilon theophrasti; conditions: Preemergence
Method in brief: as §1

morningglory = experiment: Test B pre/postemergence morningglory; assay type: in vivo, Ipomoea hederacea; conditions: Preemergence
Method in brief: as §1

rice = experiment: Test B flood test rice; assay type: in vivo, Oryza sativa
Method in brief: as §2

crabgrass = experiment: Test B pre/postemergence crabgrass; assay type: in vivo, Digitaria sanguinalis; conditions: Preemergence
Method in brief: as §1

duck salad = experiment: Test B flood test duck salad; assay type: in vivo, Heteranthera limosa
Method in brief: as §2

giant foxtail = experiment: Test B pre/postemergence giant foxtail; assay type: in vivo, Setaria faberii; conditions: Preemergence
Method in brief: as §1

corn = experiment: Test B pre/postemergence corn; assay type: in vivo, Zea mays; conditions: Preemergence
Method in brief: as §1

wheat = experiment: Test B pre/postemergence wheat; assay type: in vivo, Triticum aestivum; conditions: Preemergence
Method in brief: as §1

[1] = Rate 62 g/ha, scale of 0 to 10 where 0 is no effect and 10 is complete control
[2] = Rate 125 g/ha, scale of 0 to 10 where 0 is no effect and 10 is complete control
[3] = Rate 250 g/ha, scale 0 (no effect) to 10 (complete control)
[4] = Rate 500 g/ha, scale 0 to 10 (0 no effect, 10 complete control)
[5] = Pre-emergence, Rate 62 g/ha, scale 0 to 10, 0 is no effect, 10 is complete control
[6] = Rate 125 g/ha, Pre-emergence section (flood test species), scale 0 to 10, 0 no effect, 10 complete control
[7] = Rate 250 g/ha, Pre-emergence (flood test species), scale 0 to 10, 0 is no effect, 10 is complete control
[8] = Rate 500 g/ha, Pre-emergence section of Table B, 0 to 10 scale (0 no effect, 10 complete control)

CC(C)N(C(=O)n1oc(=O)n(C(C)C2=NOCC2)c1=O)c1ccc(F)cc1 (racemic) [Compound 721]
8: Sugarbeets plant response rating (sugar beet; [4]) | Plant response rating, B. signalgrass (surinam grass; [2]) | B. signalgrass plant response rating (surinam grass; [3]) | Plant response rating, Wild oats (wild oat; [2]) | Wild oats plant response rating (wild oat; [3]) | Velvetleaf plant response rating (velvetleaf; [3]) | Corn plant response rating (corn; [4]) | Wheat plant response rating (wheat; [4])
3: Sugarbeets plant response rating (sugar beet; [1]) | Nutsedge plant response rating (purple nutsedge; [4]) | Bedstraw plant response rating (bedstraw; [1]) | Plant response rating, Corn (corn; [2]) | Plant response rating, Wheat (wheat; [2]) | Wheat plant response rating (wheat; [3])
0: Cocklebur plant response rating (cocklebur; [1]) | Plant response rating, Cocklebur (cocklebur; [2]) | S. Flatsedge plant response rating (smallflower flatsedge; [5]) | S. Flatsedge plant response rating (smallflower flatsedge; [6]) | S. Flatsedge plant response rating (smallflower flatsedge; [7]) | S. Flatsedge plant response rating (smallflower flatsedge; [8]) | Barnyardgrass plant response rating (bamyardgrass; [5]) | Barnyardgrass plant response rating (bamyardgrass; [6]) | Barnyardgrass plant response rating (bamyardgrass; [7]) | Barnyardgrass plant response rating (bamyardgrass; [8]) | Soybean plant response rating (soybean; [1]) | Plant response rating, Soybean (soybean; [2]) | Soybean plant response rating (soybean; [3]) | Nutsedge plant response rating (purple nutsedge; [1]) | Plant response rating, Nutsedge (purple nutsedge; [2]) | Nutsedge plant response rating (purple nutsedge; [3]) | Velvetleaf plant response rating (velvetleaf; [1]) | Rice plant response rating (rice; [5]) | Rice plant response rating (rice; [6]) | Rice plant response rating (rice; [7]) | Rice plant response rating (rice; [8]) | Ducksalad plant response rating (duck salad; [5]) | Ducksalad plant response rating (duck salad; [6]) | Ducksalad plant response rating (duck salad; [7]) | Ducksalad plant response rating (duck salad; [8]) | Corn plant response rating (corn; [1]) | Wheat plant response rating (wheat; [1])
9: Blackgrass plant response rating (blackgrass; [1]) | Plant response rating, Rape (rape; [2]) | Rape plant response rating (rape; [3]) | Redroot pigweed plant response rating (pigweed; [1]) | Crabgrass plant response rating (crabgrass; [1]) | Plant response rating, Crabgrass (crabgrass; [2]) | Crabgrass plant response rating (crabgrass; [3]) | Crabgrass plant response rating (crabgrass; [4]) | Giant foxtail plant response rating (giant foxtail; [1])
5: Plant response rating, Velvetleaf (velvetleaf; [2]) | Morningglory plant response rating (morningglory; [4]) | Corn plant response rating (corn; [3])
10: Plant response rating, Blackgrass (blackgrass; [2]) | Blackgrass plant response rating (blackgrass; [3]) | Blackgrass plant response rating (blackgrass; [4]) | B. signalgrass plant response rating (surinam grass; [4]) | Rape plant response rating (rape; [4]) | Plant response rating, Redroot pigweed (pigweed; [2]) | Redroot pigweed plant response rating (pigweed; [3]) | Redroot pigweed plant response rating (pigweed; [4]) | Plant response rating, Bedstraw (bedstraw; [2]) | Bedstraw plant response rating (bedstraw; [3]) | Bedstraw plant response rating (bedstraw; [4]) | Wild oats plant response rating (wild oat; [4]) | Velvetleaf plant response rating (velvetleaf; [4]) | Plant response rating, Giant foxtail (giant foxtail; [2]) | Giant foxtail plant response rating (giant foxtail; [3]) | Giant foxtail plant response rating (giant foxtail; [4])
2: Cocklebur plant response rating (cocklebur; [3]) | Cocklebur plant response rating (cocklebur; [4]) | Plant response rating, Morningglory (morningglory; [2]) | Morningglory plant response rating (morningglory; [3])
1: Rape plant response rating (rape; [1]) | Morningglory plant response rating (morningglory; [1])
7: Plant response rating, Sugarbeets (sugar beet; [2]) | Sugarbeets plant response rating (sugar beet; [3]) | Soybean plant response rating (soybean; [4]) | B. signalgrass plant response rating (surinam grass; [1])
6: Wild oats plant response rating (wild oat; [1])
